Measurements taken from patent publication US20250026721A1, “COMPOUNDS AND METHODS FOR MODULATING RAS-PI3K” (Vividion Therapeutics, Inc., priority 2023, published 2025).

These compounds were tested against T1, PIK3CA (Homo sapiens, UniProt P42336) (assay: In vitro ELISA target engagement assay for PIK3CA in Jurkat cellular lysate (competition with PIK3CA Biotin Probe)). Settings: 1 hour at rt, then 500 nM PIK3CA Biotin Probe, read-out: Elisa Target Engagement Assay (TE50).
T1 construct: endogenous in cells; host or cells: Jurkat cell lysate
T1 sequence (P42336 whole entry): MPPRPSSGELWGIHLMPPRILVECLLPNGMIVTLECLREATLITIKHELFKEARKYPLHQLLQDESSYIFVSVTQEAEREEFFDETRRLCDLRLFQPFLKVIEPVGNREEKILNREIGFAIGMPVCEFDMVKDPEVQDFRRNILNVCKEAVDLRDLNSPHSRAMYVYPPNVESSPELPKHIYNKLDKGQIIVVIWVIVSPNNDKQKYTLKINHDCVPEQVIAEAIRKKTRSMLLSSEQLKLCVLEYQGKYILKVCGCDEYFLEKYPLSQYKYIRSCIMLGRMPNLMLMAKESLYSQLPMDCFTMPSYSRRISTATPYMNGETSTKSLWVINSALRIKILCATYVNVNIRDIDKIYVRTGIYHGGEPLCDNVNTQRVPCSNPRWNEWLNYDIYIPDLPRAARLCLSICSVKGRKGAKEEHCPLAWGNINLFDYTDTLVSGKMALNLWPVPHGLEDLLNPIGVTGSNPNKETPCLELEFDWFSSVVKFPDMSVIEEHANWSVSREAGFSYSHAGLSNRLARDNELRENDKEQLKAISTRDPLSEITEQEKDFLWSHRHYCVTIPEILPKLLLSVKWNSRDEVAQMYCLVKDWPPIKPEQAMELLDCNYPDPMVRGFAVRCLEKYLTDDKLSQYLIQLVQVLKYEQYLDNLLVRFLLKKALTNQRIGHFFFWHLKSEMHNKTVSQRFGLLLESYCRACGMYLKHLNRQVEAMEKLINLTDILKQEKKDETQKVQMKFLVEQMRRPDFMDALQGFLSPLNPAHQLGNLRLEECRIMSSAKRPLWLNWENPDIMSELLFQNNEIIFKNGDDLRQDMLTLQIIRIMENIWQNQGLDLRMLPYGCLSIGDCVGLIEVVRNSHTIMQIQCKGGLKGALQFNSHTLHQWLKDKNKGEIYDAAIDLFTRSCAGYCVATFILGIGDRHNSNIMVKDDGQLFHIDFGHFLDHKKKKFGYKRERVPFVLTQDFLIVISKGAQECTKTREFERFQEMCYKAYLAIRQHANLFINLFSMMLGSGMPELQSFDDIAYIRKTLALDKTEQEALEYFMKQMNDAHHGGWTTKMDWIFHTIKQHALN
T1 sequence (P27986 whole entry partner): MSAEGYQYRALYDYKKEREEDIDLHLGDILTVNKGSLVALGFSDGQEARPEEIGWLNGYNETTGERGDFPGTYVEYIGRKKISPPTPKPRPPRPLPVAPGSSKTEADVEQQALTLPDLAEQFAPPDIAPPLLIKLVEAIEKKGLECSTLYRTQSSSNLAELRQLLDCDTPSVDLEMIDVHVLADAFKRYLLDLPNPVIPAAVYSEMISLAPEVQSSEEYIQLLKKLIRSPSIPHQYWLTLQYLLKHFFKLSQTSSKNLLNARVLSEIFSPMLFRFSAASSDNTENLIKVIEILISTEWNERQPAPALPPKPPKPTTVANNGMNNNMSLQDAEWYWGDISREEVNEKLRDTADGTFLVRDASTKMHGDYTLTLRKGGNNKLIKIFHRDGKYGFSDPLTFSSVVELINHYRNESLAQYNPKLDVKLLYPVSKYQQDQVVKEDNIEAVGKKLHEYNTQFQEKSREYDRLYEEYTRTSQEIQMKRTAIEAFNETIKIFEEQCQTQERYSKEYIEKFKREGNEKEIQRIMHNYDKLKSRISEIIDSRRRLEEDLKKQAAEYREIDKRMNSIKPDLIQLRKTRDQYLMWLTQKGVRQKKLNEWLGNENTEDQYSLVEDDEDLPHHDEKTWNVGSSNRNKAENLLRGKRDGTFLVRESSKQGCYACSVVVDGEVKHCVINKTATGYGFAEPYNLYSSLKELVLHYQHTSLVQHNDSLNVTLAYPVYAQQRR
Type: binding
In short: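 Jurkat lysate from sonicated frozen cells was preincubated 1 h at rt with serially diluted compound up to 200 μM, then labelled 1 h at rt with PIK3CA biotin probe at 500 nM final. Probe-bound PIK3CA was captured on antibody-coated plates and detected with Neutravidin-HRP luminescence; TE50 derived from the dose response.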

First: C[C@H](/C=C\S(C)(=O)=O)NC(=O)C1(F)CCN(C(=O)C2CCN(C(=O)OC(C)(C)C)C=C2c2ccccc2Cl)CC1 (stereo partly drawn) [Compound 258, tert-butyl 5-(2-chlorophenyl)-4-(4-fluoro-4-(((R,Z)-4-(methylsulfonyl)but-3-en-2-yl)carbamoyl)piperidine-1-carbonyl)-3,4-dihydropyridine-1(2H)-carboxylate]
Second: CCC(F)(F)CN1C[C@H](C(=O)N2CCC(F)(C(=O)N[C@H](C)/C=C\S(C)(=O)=O)CC2)[C@H](c2ccccc2Cl)C1 [Compound 178, 1-((3R,4R)-4-(2-chlorophenyl)-1-(2,2-difluorobutyl)pyrrolidine-3-carbonyl)-4-fluoro-N-((R,Z)-4-(methylsulfonyl)but-3-en-2-yl)piperidine-4-carboxamide]
The IC50 of the first is 1.6-fold higher: 0.883 µM for the first, 0.54 µM for the second.

First: CC[C@@H](/C=C\S(C)(=O)=O)NC(=O)C1(F)CCN(S(=O)(=O)c2ccc(Br)cc2-c2ccccc2Cl)CC1 [Compound 82, (S,Z)-1-((5-bromo-2′-chloro-[1,1′-biphenyl]-2-yl)sulfonyl)-4-fluoro-N-(1-(methylsulfonyl)pent-1-en-3-yl)piperidine-4-carboxamide]
Second: COC[C@H](/C=C\S(C)(=O)=O)NC(=O)C1(F)CCN(S(=O)(=O)c2ccc(Br)cc2-c2ccccc2Cl)CC1 [Compound 247, (S,Z)-1-((5-bromo-2′-chloro-[1,1′-biphenyl]-2-yl)sulfonyl)-4-fluoro-N-(1-methoxy-4-(methylsulfonyl)but-3-en-2-yl)piperidine-4-carboxamide]
The IC50 of the first is 2.1-fold lower: 0.198 µM for the first, 0.41 µM for the second.

Compared with `COc1ccc(S(=O)(=O)N2CC[C@@](F)(C(=O)N[C@H](C)/C=C\S(C)(=O)=O)C[C@@H]2C)c(-c2ccccc2Cl)c1` (single isomer, unassigned) [Compound 148, (2*S,4*S)-1-((2′-chloro-5-methoxy-[1,1′-biphenyl]-2-yl)sulfonyl)-4-fluoro-2-methyl-N-((R,Z)-4-(methylsulfonyl)but-3-en-2-yl)piperidine-4-carboxamide], `Cc1ccccc1-c1cc(Br)ccc1S(=O)(=O)N1CCC(F)(C(=O)N[C@H](C)/C=C\S(C)(=O)=O)CC1` [Compound 49, (R,Z)-1-((5-bromo-2′-methyl-[1,1′-biphenyl]-2-yl)sulfonyl)-4-fluoro-N-(4-(methylsulfonyl)but-3-en-2-yl)piperidine-4-carboxamide] is 4.8-fold lower in IC50: 0.6 µM for the first, 0.125 µM for the second. The second is the more potent here.

`C[C@H](/C=C\S(C)(=O)=O)NC(=O)C1(F)CCN(S(=O)(=O)c2ccc(Br)cc2-c2cc(F)ccc2Cl)CC1` [Compound 48, (R,Z)-1-((5-bromo-2′-chloro-5′-fluoro-[1,1′-biphenyl]-2-yl)sulfonyl)-4-fluoro-N-(4-(methylsulfonyl)but-3-en-2-yl)piperidine-4-carboxamide] and `C[C@H](/C=C\[S@](C)(=N)=O)NC(=O)C1(F)CCN(S(=O)(=O)c2ccc(Br)cc2-c2ccccc2Cl)CC1` (single isomer, unassigned) [Compound 74, 1-((5-bromo-2′-chloro-[1,1′-biphenyl]-2-yl)sulfonyl)-4-fluoro-N-((R,Z)-4-((*R)-S-methylsulfonimidoyl)but-3-en-2-yl)piperidine-4-carboxamide] are within 1.5-fold of each other in IC50: 0.481 µM for the first, 0.41 µM for the second.

`C[C@@H](NC(=O)C1(F)CCN(S(=O)(=O)c2ccc(C(F)(F)F)cc2-c2ccccc2Cl)CC1)C1=CS(=O)(=O)C1` [Compound 236, (R)-1-((2′-chloro-5-(trifluoromethyl)-[1,1′-biphenyl]-2-yl)sulfonyl)-N-(1-(1,1-dioxido-2H-thiet-3-yl)ethyl)-4-fluoropiperidine-4-carboxamide] and `C[C@H](/C=C\S(C)(=O)=O)NC(=O)C1(F)CCN(C(=O)[C@@H]2CCC3(CCC3)C[C@H]2c2ccccc2Cl)CC1` (racemic) [Compound 257, 1-((6*R,7*R)-6-(2-chlorophenyl)spiro[3.5]nonane-7-carbonyl)-4-fluoro-N-((R,Z)-4-(methylsulfonyl)but-3-en-2-yl)piperidine-4-carboxamide] are within 1.5-fold of each other in IC50: 0.39 µM for the first, 0.42 µM for the second.
